Literature values, collected in patent publication US20250120913A1, “STABLE QUERCETIN NANOSUSPENSIONS” (Sirona Biosciences Inc., priority 2023, published 2025).

Conditions: depending on the pH level

In the case of `O=c1c(O)c(-c2ccc(O)c(O)c2)oc2cc(O)cc(O)c12` [Quercetin], the aqueous solubility is listed as 1.5 to 12.5 µg/mL.
